Experimental data as given in PubChem BioAssay (NCI).
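Following 48 hours of exposure in 96-well plates, responses at five concentrations were used to interpolate endpoints linearly. The concentration for 50% growth inhibition is given as GI50. TGI: concentration producing complete growth inhibition.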

How the values were obtained:
Assay in all cases: NCI anticancer screen, dose series, 48 h
DMS 273 small cell lung = tested on: DMS 273 small cell lung
HCT-15 colon = tested on: HCT-15 colon
HOP-18 NSCLC = tested on: HOP-18 NSCLC
NCI-H522 lung = tested on: NCI-H522 lung
OVCAR-3 ovarian = tested on: OVCAR-3 ovarian
RXF 393 renal = tested on: RXF 393 renal
SK-MEL-28 melanoma = tested on: SK-MEL-28 melanoma
SNB-19 CNS = tested on: SNB-19 CNS
UO-31 renal = tested on: UO-31 renal
XF 498 CNS = tested on: XF 498 CNS
HS 578T breast = tested on: HS 578T breast
TK-10 renal = tested on: TK-10 renal

Which results are given for O[C@H]1[C@H](O)[C@@H](O)CN2CC[C@H](O)[C@H]12?
TGI (DMS 273 small cell lung): > 100 µM; TGI (HCT-15 colon): > 100 µM; TGI (HOP-18 NSCLC): > 100 µM; TGI (NCI-H522 lung): > 100 µM; TGI (OVCAR-3 ovarian): > 100 µM; TGI (RXF 393 renal): > 100 µM; TGI (SK-MEL-28 melanoma): > 100 µM; TGI (SNB-19 CNS): > 100 µM; TGI (UO-31 renal): > 100 µM; TGI (XF 498 CNS): > 100 µM

Which TGI (DMS 273 small cell lung) does the source give for O=C(NCCCl)O/N=C/c1cccnc1 here?
Its TGI is greater than 100 µM.

And the TGI (HCT-15 colon)?
Its TGI is greater than 100 µM.

And the TGI (HOP-18 NSCLC)?
The TGI was greater than 100 µM.

And the TGI (NCI-H522 lung)?
The TGI was greater than 100 µM.

And the TGI (OVCAR-3 ovarian)?
The TGI was greater than 100 µM.

And the GI50 (RXF 393 renal)?
The GI50 was greater than 100 µM.

And the TGI (RXF 393 renal)?
Its TGI is greater than 100 µM.

And the TGI (SK-MEL-28 melanoma)?
The TGI was greater than 100 µM.

What about the TGI (SNB-19 CNS) of the same compound?
Its TGI is greater than 100 µM.

And the TGI (UO-31 renal)?
Its TGI is greater than 100 µM.

And the TGI (XF 498 CNS)?
The TGI was greater than 100 µM.

With O=C(c1ccccc1)c1ccc2c(c1)NC(=O)c1ccccc1SSc1ccccc1C(=O)N2 as the compound, how does the TGI (HCT-15 colon) read?
Its TGI is greater than 100 µM.

And the TGI (HS 578T breast)?
Its TGI is greater than 100 µM.

And the TGI (NCI-H522 lung)?
Its TGI is greater than 100 µM.

And the TGI (OVCAR-3 ovarian)?
Its TGI is greater than 100 µM.

And the TGI (RXF 393 renal)?
The TGI was greater than 100 µM.

What about the TGI (SK-MEL-28 melanoma) of the same compound?
The TGI was greater than 100 µM.

What about the TGI (SNB-19 CNS) of the same compound?
Its TGI is greater than 100 µM.

And the TGI (TK-10 renal)?
Its TGI is greater than 100 µM.

What about the TGI (UO-31 renal) of the same compound?
Its TGI is greater than 100 µM.

What does the source list for Cc1nc2ccccc2c(-n2cccn2)c1CCn1cccn1?
TGI (HCT-15 colon): > 100 µM; TGI (HS 578T breast): > 100 µM; TGI (NCI-H522 lung): > 100 µM; TGI (OVCAR-3 ovarian): > 100 µM; TGI (RXF 393 renal): > 100 µM; TGI (SK-MEL-28 melanoma): > 100 µM; TGI (SNB-19 CNS): > 100 µM; TGI (TK-10 renal): > 100 µM; TGI (UO-31 renal): 3.43 µM

With CSc1nc2c(c(N(C)C)n1)C(O)n1c(nc3ccccc31)S2 (stereo not given) as the compound, how does the TGI (HCT-15 colon) read?
The TGI was greater than 100 µM.

What about the TGI (HS 578T breast) of the same compound?
The TGI was greater than 70.8 µM.

What about the TGI (NCI-H522 lung) of the same compound?
The TGI was 39.2 µM.

And the TGI (OVCAR-3 ovarian)?
The TGI was greater than 63.4 µM.

What about the TGI (RXF 393 renal) of the same compound?
The TGI was 65.3 µM.

What about the TGI (SK-MEL-28 melanoma) of the same compound?
The TGI was greater than 100 µM.

What about the TGI (SNB-19 CNS) of the same compound?
The TGI was greater than 77.9 µM.

And the TGI (TK-10 renal)?
Its TGI is greater than 100 µM.

What about the TGI (UO-31 renal) of the same compound?
The TGI was greater than 100 µM.

What does the source list for O=C(CNc1ccc(Cl)cc1Cl)Nn1c(-c2ccccc2)nc2ccccc2c1=O?
TGI (HCT-15 colon): 33.5 µM; TGI (HS 578T breast): 71.8 µM; TGI (NCI-H522 lung): 25.7 µM; TGI (OVCAR-3 ovarian): 31.3 µM; TGI (RXF 393 renal): 36.5 µM; TGI (SK-MEL-28 melanoma): 43.7 µM; TGI (SNB-19 CNS): 33.9 µM; TGI (TK-10 renal): 36.1 µM; TGI (UO-31 renal): 48.4 µM

How did the TGI (HCT-15 colon) turn out when Cc1ccc2c(c1)c1ccc3c(c1n2C)C(=O)C=CC3=O was run?
Its TGI is 3.92 µM.

What about the TGI (HS 578T breast) of the same compound?
The TGI was 8.66 µM.

And the TGI (NCI-H522 lung)?
Its TGI is 2.68 µM.

And the TGI (OVCAR-3 ovarian)?
Its TGI is 4.53 µM.

And the TGI (RXF 393 renal)?
The TGI was 3.46 µM.

What about the TGI (SK-MEL-28 melanoma) of the same compound?
Its TGI is 4.76 µM.

What about the TGI (SNB-19 CNS) of the same compound?
Its TGI is greater than 10 µM.

What about the TGI (TK-10 renal) of the same compound?
The TGI was 3.76 µM.

What about the TGI (UO-31 renal) of the same compound?
Its TGI is 3.17 µM.

CN1CC[C@]2(c3cccc(O)c3)CC(=O)/C(=C/c3ccccc3)[C@@H]1C2 was tested. Which TGI (HCT-15 colon) did it give?
Its TGI is 4.93 µM.

What about the TGI (HS 578T breast) of the same compound?
The TGI was 13 µM.

What about the TGI (NCI-H522 lung) of the same compound?
The TGI was 11.2 µM.

And the TGI (OVCAR-3 ovarian)?
The TGI was 4.43 µM.

What about the TGI (RXF 393 renal) of the same compound?
The TGI was 4.18 µM.

What about the TGI (SK-MEL-28 melanoma) of the same compound?
The TGI was 13.4 µM.

What about the TGI (SNB-19 CNS) of the same compound?
The TGI was 18.2 µM.

What about the TGI (TK-10 renal) of the same compound?
Its TGI is 27.1 µM.

What about the TGI (UO-31 renal) of the same compound?
The TGI was 10.4 µM.
